# Measured values published in patent US20120328526A1, “Modulation of Nad+ Activity in Neuropathophysiological Conditions and Uses Thereof” (University of Maryland, Baltimore, priority 2011, published 2012).
# “Also recorded” adds a separate entry of the source.
# How the values were obtained:
# [1] = test system: neurons in the CA1 sector of the hippocampus; test: Forebrain ischemia model, histological outcome in the CA1 sector of the hippocampus; assay type: in vivo, mouse
# Method: FIGS. 1A-1B show effects of nicotinamide mononucleotide administration. FIG. 1A: Fluoro-Jade B staining of the hippocampal formation of mouse brain subjected to 10 min forebrain ischemia and 5 days of recovery. The middle panels represent enlarged views of the CA1 sector, the CA2-3 border, and DG. Note the high number of degenerating, Fluoro-Jade B positive cells in the CA1 pyramidal cell layer. There are only a few cells stained in the CA3 region, and some cells are stained in the DG. […] Open bars represent average values.
# In all groups male, 3 months old animals were used.
# C57BL/6 male mice, weighing 20-25 g were used. Mice were fasted overnight with free access to water ad libitum. Animals were anesthetized with 3.5% isoflurane in 70% N2O and 30% O2 and the trachea were intubated with a 20-guage intravenous catheter. Anesthesia was maintained using 1.5% isoflurane in N2O:O2 (70:30) and the lungs were mechanically ventilated at a rate of 120 breaths per min and the tidal volume was adjusted to give normal physiological values of blood gases (34-38 mm Hg pCO2 and […] of pO2). The common carotid arteries was isolated via a neck incision and encircled with loose ligatures for later clamping. Rectal temperature was routinely monitored before, during and after ischemia. A subcutaneous needle thermistor was placed adjacent to the skull. The body and head temperature was maintained at 37.0±0.5° C. by a homeothermic-heating pad and heating lamp.
# Two minutes before the common carotid arteries are clamped, the isoflurane concentration will be increased to 5%. […]
# Every sixth […] section located between 1.7 and 2.6 mm posterior to bregma (0 mm, 180 mm, 360 mm, 540 mm, 720 mm, 900 mm; 6 sections), which comprises the dorsal hippocampus, was stained with IBA1 antiserum and cresyl violet and used for estimating the total microglial number with distinct morphology and neuronal numbers of normal and dying neurons in the different hippocampal regions. […] Parallel sections were immuno-stained with GFAP antibody and the number of distinct astrocytes were counted in the same hippocampal area. GFAP-immunoreactive cells were classified into three categories: normal, moderate, and intensely activated astrocytes, based on morphological characteristics as assessed by visual inspection (23).
# Quantitative analysis is performed on a computer-assisted image analysis system consisting of a Nikon Eclipse 800 photomicroscope equipped with a computer-controlled motorized stage, and a computer running Stereolnvestigator program, a custom-designed morphology and stereology software (27). Cell numbers were quantified according to the optical fractionator method. […]
# For quantification of uninjured cells within the CA1 sector of the hippocampus an unbiased stereological technique was used (27). […]
# [2] = Core temperature and blood pressure after nicotinamide mononucleotide administration in post-ischemic animals; assay type: in vivo, mouse
# From the text: For quantification of uninjured cells within the CA1 sector of the hippocampus an unbiased stereological technique was used (27). […] This is in accord with the degree of hippocampal injury reported in other models of mouse forebrain ischemia. There were no seizure incidents during the first hours of recovery however there was about 10% mortality in the 5 days recovery group. […] To exclude the possibility that the protection was due to hypothermia, the treated animals' core temperature was monitored for 1 h after the nicotinamide mononucleotide administration. The body temperature was stable at 37.5° C. Similarly there was no effect of nicotinamide mononucleotide administration on the animals' blood pressure that was maintained between 80 and 100 mmHg after the compound injection.
# CD38-deficient cells = test: Oxygen-glucose deprivation (OGD) in CD38-deficient cell cultures; assay type: cell-based, mouse
# From the text: At later recovery periods, tissue NAD(H) decrease since the NAD^+ translocates from mitochondria to the cytosol and is hydrolyzed by the activated NAD^+ glycohydrolases CD38 and PARP1. CD38-dependent overactivation of microglia under diabetic conditions leads to aggravation of ischemic brain damage, astrocytes and neurons prepared from CD38 knockout animals with microglia (9) from wild type or CD38-null animals are co-cultured. The co-cultures are then subjected to OGD and the cell death assessed at 24 h of recovery.
# Exposure of cortical astrocytes to OGD plus ISS for 4 h results in significant (>50%) cell death after 24 h of reoxygenation (24) was determined. When cortical neurons are subjected to the same insult for 1 h, a similar level of cell death (40-50%) was observed. Cells cultured under hyperglycemic conditions (30 mM glucose) are more sensitive to the oxygen-glucose deprivation (OGD) insult. The CD38-deficient cells will have elevated basal levels of NAD(H) since the brain NAD(H) levels in CD38-null mice are several-fold higher when compared to wild type mice (6). The protective effect of CD38 knockout in specific cell types will also depend on the oxygen-glucose deprivation-induced loss of mitochondrial NAD(H) that can promote total cellular NAD(H) depletion. […]
smiles,measurement,setting,value
NC(=O)c1ccc[n+]([C@@H]2O[C@H](COP(=O)([O-])O)[C@@H](O)[C@H]2O)c1 [nicotinamide mononucleotide],ischemic cell death / brain damage in the CA1 sector of the hippocampus,"[1]; 10 min forebrain ischemia, NMN 500 mg/kg at 1 hour of reperfusion, 5 days of recovery",almost completely ameliorated; also recorded: markedly ameliorates ischemic brain damage; also recorded: almost completely eliminate the ischemic brain damage; also recorded: dramatic amelioration of cell death; also recorded: significant protection
same,ischemic cell death / brain damage in the CA1 sector of the hippocampus,"[1]; 10 min forebrain ischemia, NMN 500 mg/kg at 1 hour of reperfusion, 5 days of recovery, listed as NMN",Dramatic reduction of ischemia-induced brain damage
same,animals that did not show any injured neurons,"[1]; 10 min forebrain ischemia, NMN 500 mg/kg at 1 hour of reperfusion, 5 days of recovery, n=6",Five of 6
same,percentage of uninjured neurons in the CA1 sector vs vehicle-treated wild type mice,"[1]; 10 min global cerebral ischemia, NMN 1000 mg/kg IP at start of reperfusion, 6 days of recovery",significantly greater
same,effect on animals' blood pressure,[2]; after the compound injection (500 mg/kg),no effect
same,body (core) temperature after administration,[2]; monitored for 1 h after NMN administration (500 mg/kg),37.5 °C
same,protective effect in CD38-deficient cells compared to PARP-1 inhibitors 3-AB or PJ34,CD38-deficient cells,less efficient protective effect
